From article doi:10.1101/2024.04.15.589505v1 (biorxiv, 2024)

Tests used:
[1] = target: T1, DENV2 protease (DENV2pro; DENV serotype 2 NS2B-NS3 protease construct, GGGGSGGGG-linked) (Dengue virus 2 Thailand/16681/84, UniProt P29990); experiment: biochemical
[2] = target: T1, DENV2 protease (DENV2pro; DENV serotype 2 NS2B-NS3 protease construct, GGGGSGGGG-linked); experiment: biochemical; assay type: binding

T1 sequence (P29990 1394-1440 limits assumed): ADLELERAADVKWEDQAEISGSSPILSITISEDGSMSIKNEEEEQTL
T1 sequence (P29990 1476-1660 limits assumed): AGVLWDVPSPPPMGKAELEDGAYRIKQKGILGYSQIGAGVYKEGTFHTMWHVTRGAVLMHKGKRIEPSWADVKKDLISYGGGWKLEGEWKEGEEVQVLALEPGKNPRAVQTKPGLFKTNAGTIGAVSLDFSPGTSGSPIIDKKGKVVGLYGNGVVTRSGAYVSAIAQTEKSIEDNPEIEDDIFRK

Structure (SMILES)	IC50 [1] [µM]	Kd [2] [µM]
N=C(N)NCCC[C@H](NC(=O)[C@H](CCCNC(=N)N)NC(=O)c1ccccc1)B(O)O [compound 1]	0.68 ± 0.01	
CCCCCC(=O)N[C@H](C(=O)NCc1ccc(NC(=N)N)cc1)c1ccc(OCc2ccccc2)cc1 [compound 3]	17.6 ± 2.15	
NC(=O)c1cccc(NC(=O)[C@@H](NC(=O)c2ccc(Oc3ccccc3)cc2)c2ccc(OCc3ccccc3)cc2)c1 [compound 4]	5.37 ± 0.73	
CC(C)(C)NC(=O)C(=O)/C=C/c1c[nH]c2ccccc12 [compound 5]	37.1 ± 1.29	
NC(=O)c1ccc(CNC(=O)[C@@H](NC(=O)c2ccc(-c3cccs3)s2)c2ccc(OCc3ccccc3)cc2)cc1 [compound 23]		2.4 ± 0.6
